In paper PMC2632993, “Conformational changes in α7 acetylcholine receptors underlying allosteric modulation by divalent cations” (BMC Pharmacology, 2009):

Key:
Assay in all cases: MTSEA thiol modification rate (SCAM) from ACh-evoked currents in oocytes
Assay type in all cases: cell-based, chick
[1] = target: α7 AChR E^44C mutant (C^115A/L^247T background) (Gallus gallus, UniProt P22770, C138A/E67C/L270T)
Protocol: (§1) ACh-evoked current amplitudes decreased following brief, repeated exposure to a limiting concentration of MTSEA (5 μM, 15 seconds). To ensure that the modification reactions were complete, all rate measurements included a final prolonged application of ~100-fold higher concentrations of MTSEA (Fig. 3A and 3B, right). Currents measured following this application represent the endpoint of the reaction between MTSEA and receptors. When the same protocol included Ba^2+ pretreatment and co-application with MTSEA (see Methods), the decreases in current amplitudes were slowed but the same endpoint was obtained (Fig. 3B). Normalized current amplitudes were plotted as a function of the cumulative time of exposure to MTSEA, and pseudo first-order rates were extracted from the single-exponential fits (Fig. 3C).
(§2) Figure 3 Barium slows the rate of MTSEA modification at M^37C. Example of experimental paradigm used to assess Ba^2+ effects on modification rates. […] Endpoints of MTSEA modification are determined by prolonged application of 500 μM MTSEA (right). (B) The same protocol, including Ba^2+ pretreatment and co-application with MTSEA. Current traces are truncated in both (A) and (B) between consecutive MTSEA applications; in all cases the currents were allowed to return to baseline prior to the next application of MTSEA ± ACh. (C) Peak current amplitudes from (A) and (B) are normalized and plotted versus total MTSEA exposure time. Data from this single experiment (no error bars) are fitted to a single-exponential decay (solid line) to extract an apparent pseudo first-order rate constant. The pseudo first-order rate constants calculated in this experiment were 0.011 s^-1 and 0.0019 s^-1 for control (A) and +Ba^2+ (B) measurements, respectively. Second-order rate constants are calculated from these values (Figures 4–6; Table 2).
(§3) Oocytes were superfused in normal extracellular solution containing a reduced Ca^2+ concentration (ESLC; 96 mM NaCl, 2 mM KCl, 1 mM MgCl2, 0.1 mM CaCl2, and 10 mM HEPES, pH 7.5). This solution minimized Ca^2+ influx and eliminated Ca^2+-activated chloride currents. Two-electrode voltage clamp was performed with a GeneClamp 500B controlled by pCLAMP8 software (Molecular Devices, Sunnyvale, CA). Electrodes were filled with 3 M KCl contacting Ag-AgCl wires and had resistances of 0.5 to 2.0 MΩ. Currents were recorded at a constant holding potential of -60 mV. Currents were low pass filtered at 50 Hz and sampled at 100 Hz. Agonist dose-response curves were obtained as described previously, and data were fit to the Hill equation using Origin software (Microcal Software, Northampton, MA).
(§4) MTSEA was prepared daily in distilled water and stored on ice. Stock solution was diluted to the appropriate working concentration in ESLC immediately before each application. […] The limiting dose, yielding 20–40% of the maximal MTSEA effect, was identified for each mutant. […] To measure the effect of Ba^2+ on modification rates we pre-applied 10 mM Ba^2+ for 30 seconds prior to co-application of 10 mM Ba^2+ plus MTSEA. This concentration of Ba^2+ is equivalent to an approximate […] for the modulatory effects in both parental and mutant AChRs. Kinetic data were analyzed as described previously; rate data were fit to a single exponential to extract a pseudo-first order rate constant; this was divided by the MTSEA concentration used to determine the second order rate constant for thiol modification.

[2] = target: α7 AChR E^172C mutant (C^115A/L^247T background) (Gallus gallus, UniProt P22770, C138A/E195C/L270T); details: ± standard error
Protocol: as §1, §2, §3, §4

[3] = target: α7 AChR M^37C mutant (C^115A/L^247T background) (Gallus gallus, UniProt P22770, C138A/L270T/M60C); details: for pseudo first-order rate constant of MTSEA modification: 5 μM MTSEA, single experiment
Protocol: as §1, §2, §3, §4

[4] = target: α7 AChR N^52C mutant (C^115A/L^247T background) (Gallus gallus, UniProt P22770, C138A/L270T/N75C); details: ± standard error
Protocol: as §1, §2, §3, §4

[5] = target: T1, α7 AChR M^40C mutant (C^115A/L^247T background) (Gallus gallus, UniProt P22770, C138A/L270T/M63C); details: ± standard error
T1 construct: expressed in transfected cells; host or cells: Xenopus laevis oocytes injected with cRNA
Protocol: as §1, §2, §3, §4

[6] = target: α7 AChR N^170C mutant (C^115A/L^247T background) (Gallus gallus, UniProt P22770, C138A/L270T/N193C); details: ± standard error
Protocol: as §1, §2, §3, §4

[7] = target: α7 AChR M^40C/E^172Q mutant (C^115A/L^247T background) (Gallus gallus, UniProt P22770, C138A/E195Q/L270T/M63C); details: ± standard error
Protocol: as §1, §2, §3, §4

[8] = MTSEA + 10 mM Ba^2+ (30 s pre-application), ± standard error
[9] = MTSEA + ~EC110 ACh, ± standard error
[10] = co-expression with human RIC-3, MTSEA + 10 mM Ba^2+ (30 s pre-application)
[11] = co-expression with human RIC-3, MTSEA + ~EC110 ACh
[12] = co-expression with human RIC-3, MTSEA alone
[13] = MTSEA + 10 mM Ba^2+ (30 s pre-application)

In the case of `CS(=O)(=O)SCCN` [MTSEA, 2-aminoethylmethane thiosulfonate], the “MTSEA modification rate (second-order rate constant), + Ba^2+” value (shortened to “MTSEA modification rate … + Ba^2+”) [1, 8] was 9.3 ± 0.1(8) × 10^3, M^-1 S^-1, the “MTSEA modification rate (second-order rate constant), + ACh” value (shortened to “MTSEA modification rate … + ACh”) [1, 9] was 0.90 ± 0.05 (4) × 10^3, M^-1 S^-1 and the “MTSEA modification rate (second-order rate constant), control” value (“MTSEA modification rate … control” for short) ([1]; MTSEA alone, ± standard error) was 23 ± 0.7 (4) × 10^3, M^-1 S^-1. The “MTSEA modification rate in the presence of Ba^2+ compared to that in the presence of ACh” value ([1]; higher with Ba^2+) was ~ 10 fold, the “MTSEA modification rate … + Ba^2+” value [2, 10] was 7.3 ± 0.3 (6) × 10^3, M^-1 S^-1 and the “MTSEA modification rate … + ACh” value [2, 11] was 3.5 ± 0.1 (5) × 10^3, M^-1 S^-1. The “MTSEA modification rate … control” value [2, 12] was 15 ± 0.4 (5) × 10^3, M^-1 S^-1, the “pseudo first-order rate constant of MTSEA modification” value ([3]; +Ba^2+) was 0.0019 s⁻¹ and the “pseudo first-order rate constant of MTSEA modification” value ([3]; control) was 0.011 s⁻¹. For the same molecule, the “MTSEA modification rate … + Ba^2+” value [3, 8] was 0.40 ± 0.02 (5) × 10^3, M^-1 S^-1, the “MTSEA modification rate … + ACh” value [3, 9] was 0.30 ± 0.05 (4) × 10^3, M^-1 S^-1 and the “MTSEA modification rate … control” value ([3]; MTSEA alone, ± standard error) was 2.4 ± .03 (10) × 10^3, M^-1 S^-1. For the same molecule, the “MTSEA modification rate … + Ba^2+” value [4, 13] was 0.26 ± 0.02 (7) × 10^3, M^-1 S^-1, the “MTSEA modification rate … + ACh” value ([4]; MTSEA + ~EC110 ACh) was 1.4 ± 0.04 (7) × 10^3, M^-1 S^-1 and the “MTSEA modification rate … control” value ([4]; MTSEA alone) was 0.40 ± .08 (9) × 10^3, M^-1 S^-1. The “MTSEA modification rate … + Ba^2+” value [5, 13] was 2.8 ± 0.05 (7) × 10^3, M^-1 S^-1, the “MTSEA modification rate … + ACh” value ([5]; MTSEA + ~EC110 ACh) was 2.2 ± 0.4 (3) × 10^3, M^-1 S^-1 and the “MTSEA modification rate … control” value ([5]; MTSEA alone) was 16 ± 0.2 (13) × 10^3, M^-1 S^-1. The “MTSEA modification rate … + Ba^2+” value [6, 10] was 3.7 ± 0.06 (9) × 10^3, M^-1 S^-1, the “MTSEA modification rate … + ACh” value [6, 11] was 5.7 ± 0.1 (7) × 10^3, M^-1 S^-1 and the “MTSEA modification rate … control” value [6, 12] was 3.3 ± .05 (7) × 10^3, M^-1 S^-1. For the same molecule, the “MTSEA modification rate … + Ba^2+” value [7, 10] was 2.0 ± 0.3 (6) × 10^3, M^-1 S^-1, the “MTSEA modification rate … + ACh” value [7, 11] was 1.3 ± 0.1 (5) × 10^3, M^-1 S^-1 and the “MTSEA modification rate … control” value [7, 12] was 14 ± 0.5 (5) × 10^3, M^-1 S^-1.
